The source of these data is patent publication US20240002441A1, “PEPTIDES AND USES THEREOF IN MODULATION OF AMYLOID-BETA PROTEIN DEGRADING PROTEASES” (priority 2020, published 2024).

For one test, the system named is STZ diabetic mouse model. In words: STZ diabetic mouse model, inflammation and fibrosis (Example 12). Format: in vivo. Particulars: 1 mg/kg subcutaneously by minipump, 4 weeks. On the procedure:
Mice were divided into two groups, all mice were treated with STZ (150 mg/kg) 1 week before starting treatment. Prior to STZ treatment, urine and blood samples were taken and a blood glucose test undertaken. Similarly, before treatment began, one week post STZ administration, urine and blood samples were taken and blood glucose was assessed. The two treatment groups were then treated with either vehicle only or SEQ ID NO: 2 (1 mg/kg) subcutaneously by minipump. The mice were then monitored for 4 weeks before sacrifice. Monitoring included assessing the weight of each animal every day, and taking urine and blood samples and measuring blood glucose at 2 weeks post treatment and immediately before sacrifice.

The target of a further test is T1, NEP (Homo sapiens, UniProt P08473).
T1 construct: purchased R & D systems 1182-ZNC-010
In words: QFS assay of Aβ-degrading enzymes: NEP (Example 6). Format: biochemical. As to the method: (§1) Plate reader-based enzyme assays were performed using a quenched fluorescent substrate (QFS) in a 96-well format using a SpectraMAX M4 Microplate reader (Molecular Devices). The increase in fluorescence following addition of QFS (40 μM) was taken as evidence of enzyme activity. Fluorescence was monitored over 2 h at 37° C. using κEx=320 nm and λEm=405 nm. Assays were conducted in black 96-well plates. Specific enzyme activity was expressed as a rate of substrate cleavage calculated using a standard curve of 7-methoxy-coumarin-4-acetic acid.
(§2) In all plate reader-based enzyme assays using QFS, the reaction rate (μmol of substrate cleaved/min) was calculated using linear regression analysis (GraphPad Prism software version 8.01). The reaction rates calculated were used to generate the enzyme kinetic parameters Vmax and Km through non-linear regression analysis (GraphPad Prism software, version 8.01; Michaelis-Menten equation). Where indicated, enzyme activity in the presence of peptide was expressed as a % of the enzyme alone. Data were expressed as mean±SEM and statistical significance was determined using t-tests or one-way ANOVAs followed by Tukey's post-hoc test. P<0.05 was considered as statistically significant. In all assays conducted using 96-well plates, the reaction mixtures in each well were considered an independent experiment.
(§3) SEQ ID NO:2 was assessed in a QFS assay against enzymes NEP, ECE1, ECE2, ACE1, ACE2, IDE and MMP-2 using the method in Example 2 and the following procedure. NEP, ACE1, ECE2 (0.05 ng/μL), ACE2, IDE (0.10 ng/μL), and ECE1 (6.4 ng/μL) were incubated with SEQ ID NO:2 (0.9-26 μM) or scrambled control (9 μM) for 1 h at 37° C. Prior to use, MMP2 (0.50 ng/μL) was activated using p-aminophenylmercuric acetate to a final concentration of 100 μM for 1 h at 37° C. Following activation, MMP2 was incubated with SEQ ID NO:2 for 1 h at 37° C. before adding the appropriate QFS.

A further test concerns the target T2, IDE (Homo sapiens, UniProt P14735).
T2 sequence (P14735 1-1019): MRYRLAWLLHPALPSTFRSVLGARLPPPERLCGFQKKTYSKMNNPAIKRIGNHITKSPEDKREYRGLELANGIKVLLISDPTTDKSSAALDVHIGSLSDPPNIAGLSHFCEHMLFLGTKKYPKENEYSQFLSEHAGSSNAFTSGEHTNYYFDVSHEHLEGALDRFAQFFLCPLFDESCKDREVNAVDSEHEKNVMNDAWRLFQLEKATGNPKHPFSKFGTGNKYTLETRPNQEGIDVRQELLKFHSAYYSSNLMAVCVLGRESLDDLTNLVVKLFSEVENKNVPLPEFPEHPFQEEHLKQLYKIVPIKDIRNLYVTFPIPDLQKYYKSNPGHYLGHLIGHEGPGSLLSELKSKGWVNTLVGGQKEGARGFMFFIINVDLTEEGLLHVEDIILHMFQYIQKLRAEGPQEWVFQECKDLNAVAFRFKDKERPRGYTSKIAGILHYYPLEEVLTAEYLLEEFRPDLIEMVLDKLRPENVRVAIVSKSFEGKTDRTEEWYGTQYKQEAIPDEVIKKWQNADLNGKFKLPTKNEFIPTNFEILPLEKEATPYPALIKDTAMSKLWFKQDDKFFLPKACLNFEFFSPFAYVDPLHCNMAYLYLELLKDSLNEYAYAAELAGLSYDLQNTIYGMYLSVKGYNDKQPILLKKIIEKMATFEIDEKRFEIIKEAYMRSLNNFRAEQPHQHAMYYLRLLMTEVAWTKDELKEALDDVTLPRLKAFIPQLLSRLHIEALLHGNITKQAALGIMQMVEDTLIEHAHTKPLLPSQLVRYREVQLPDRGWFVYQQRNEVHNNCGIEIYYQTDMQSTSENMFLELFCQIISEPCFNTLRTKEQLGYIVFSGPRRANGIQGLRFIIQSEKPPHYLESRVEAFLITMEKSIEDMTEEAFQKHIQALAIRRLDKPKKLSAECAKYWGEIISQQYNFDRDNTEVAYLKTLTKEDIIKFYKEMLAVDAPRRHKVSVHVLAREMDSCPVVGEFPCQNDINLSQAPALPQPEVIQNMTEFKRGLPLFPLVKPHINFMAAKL
Kind of test: QFS assay of Aβ-degrading enzymes: IDE (Example 6). The class given is biochemical. On the procedure:
as §1, §2, §3

T1 sequence (P08473 whole entry): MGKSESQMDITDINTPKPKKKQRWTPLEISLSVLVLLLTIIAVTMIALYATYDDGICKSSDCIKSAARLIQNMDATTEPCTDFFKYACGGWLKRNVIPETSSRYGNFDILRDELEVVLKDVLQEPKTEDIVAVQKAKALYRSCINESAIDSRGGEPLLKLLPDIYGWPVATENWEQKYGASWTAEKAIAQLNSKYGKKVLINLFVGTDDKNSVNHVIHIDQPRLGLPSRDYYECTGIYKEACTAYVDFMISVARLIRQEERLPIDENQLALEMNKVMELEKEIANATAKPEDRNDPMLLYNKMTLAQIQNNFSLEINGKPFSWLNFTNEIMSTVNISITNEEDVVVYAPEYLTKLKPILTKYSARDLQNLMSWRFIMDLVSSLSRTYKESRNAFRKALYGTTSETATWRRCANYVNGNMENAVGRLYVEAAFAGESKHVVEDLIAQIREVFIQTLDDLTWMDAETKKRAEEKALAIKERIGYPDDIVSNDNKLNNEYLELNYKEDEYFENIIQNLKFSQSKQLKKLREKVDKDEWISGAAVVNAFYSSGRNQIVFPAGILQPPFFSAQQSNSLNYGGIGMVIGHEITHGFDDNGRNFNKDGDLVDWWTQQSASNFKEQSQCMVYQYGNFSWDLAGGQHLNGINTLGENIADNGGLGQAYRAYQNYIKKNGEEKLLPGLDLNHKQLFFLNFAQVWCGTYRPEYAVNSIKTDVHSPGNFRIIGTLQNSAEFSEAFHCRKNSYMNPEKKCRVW

For “H-SLFELGKMIL-NH2 [SEQ ID NO:2, H2N-SLFELGKMIL-NH2]”, in the test with STZ diabetic mouse model, the “blood glucose compared with vehicle treated mice” value is reported as “lower”, the “kidney IL-6 expression compared with vehicle treated mice” value is “lower”, the “kidney collagen I expression compared with vehicle treated mice” value is reported as “lower” and the “kidney collagen III expression compared with vehicle treated mice” value was “lower”. Also, the “submaximal concentration against NEP” value on NEP stood at 9 µM. Besides, the “NEP activity compared with respective enzyme alone” value on NEP (peptide 2 μM (FIG. 2c)) is “significantly increased”. In addition, the “activity of NEP as % of enzyme alone controls” value at NEP (peptide 9 μM) was 380%. In addition, the “NEP activity, concentration dependence” value at NEP (peptide 0.9-26 μM) is reported as “increased the activity”. Further, the “IDE activity compared with respective enzyme alone” value on IDE (peptide 2 μM (FIG. 2c)) is given as “did not increase”. Further, the “IDE activity compared with respective enzyme alone” value on IDE (peptide 9 μM, significantly less compared with ACE2 and NEP) is listed as “significantly higher”. The “IDE activity, concentration dependence” value at IDE (peptide 0.9-26 μM) is reported as “increased the activity”.
